Substitutions are numbered along the chain they refer to.
Experiments:
AKR1C3 = target: T1, AKR1C3 (Homo sapiens, UniProt P42330); assay: Spectrophotometric inhibition assay, 1-acenaphthenol oxidation with NAD+; type: biochemical; conditions: pH 9.0, screening at 400 μM
T1 sequence (P42330 1-323): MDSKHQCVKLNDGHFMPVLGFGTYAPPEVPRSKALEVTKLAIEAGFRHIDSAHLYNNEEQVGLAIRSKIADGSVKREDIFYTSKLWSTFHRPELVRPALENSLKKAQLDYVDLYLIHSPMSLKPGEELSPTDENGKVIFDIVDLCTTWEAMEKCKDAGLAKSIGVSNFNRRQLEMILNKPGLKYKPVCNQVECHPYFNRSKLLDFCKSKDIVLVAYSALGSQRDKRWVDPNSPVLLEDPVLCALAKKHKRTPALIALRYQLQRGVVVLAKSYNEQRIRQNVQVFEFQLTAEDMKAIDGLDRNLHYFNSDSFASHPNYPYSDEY

AKR1C1 = target: T2, AKR1C1 (Homo sapiens, UniProt Q04828); assay: as above; type: biochemical; conditions: pH 9.0, screening at 400 μM
T2 sequence (Q04828 1-323): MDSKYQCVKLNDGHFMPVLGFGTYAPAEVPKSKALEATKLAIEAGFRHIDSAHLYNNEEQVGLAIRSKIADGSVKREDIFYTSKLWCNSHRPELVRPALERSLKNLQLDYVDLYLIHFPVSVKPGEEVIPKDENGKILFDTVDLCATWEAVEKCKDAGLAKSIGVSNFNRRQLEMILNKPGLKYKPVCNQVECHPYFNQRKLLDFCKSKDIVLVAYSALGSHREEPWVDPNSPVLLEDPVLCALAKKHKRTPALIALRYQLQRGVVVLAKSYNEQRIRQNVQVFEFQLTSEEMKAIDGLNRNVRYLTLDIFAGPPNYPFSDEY

AKR1C2 = target: T3, AKR1C2 (Homo sapiens, UniProt P52895); assay: as above; type: biochemical; conditions: pH 9.0, screening at 400 μM
T3 sequence (P52895 1-323): T2 sequence (Q04828 1-323) with T38V, R47H, L54V, C87S, V151M, R170H, Q172L

AKR1C1-3 = assay: Isoform profile across the AKR1C enzymes; type: biochemical, human; conditions: 1-acenaphthenol oxidation, NAD+, pH 9.0

Row | inhibition of AKR1C3 (in words) (AKR1C3) | inhibition of AKR1C1 (in words) (AKR1C1) | inhibition of AKR1C2 (in words) (AKR1C2) | inhibition profile / isoform selectivity on AKR1C enzymes (in words) (AKR1C1-3) | SMILES
1 | weak inhibitor | weak inhibitor | – | – | Cc1ccc(NC(=O)c2cccnc2)c(C(=O)O)c1 [Compound 10]
2 | moderate | – | – | – | O=C(O)c1ccc(CNCc2ccccn2)cc1 [Compound 18]
3 | – | – | moderate inhibitor | – | CC(=O)Nc1ccc(C(C#N)c2ccccc2)cc1 (stereo not shown) [Compound 24, N-(4-(cyano(phenyl)methyl)phenyl)acetamide]
4 | – | – | – | selective AKR1C3 inhibitors | O=C(NCc1cc(=O)[nH]cn1)c1cc2ccccn2n1 [Compound 27, N-((6-oxo-1,6-dihydropyrimidin-4-yl)methyl)pyrazolo[1,5-a]pyridine-2-carboxamide]

Second part, the compound before the results:

Row | SMILES | inhibition of AKR1C3 (in words) (AKR1C3) | inhibition of AKR1C1 (in words) (AKR1C1) | inhibition of AKR1C2 (in words) (AKR1C2) | inhibition profile / isoform selectivity on AKR1C enzymes (in words) (AKR1C1-3)
5 | O=C(O)c1cc(NC(=O)c2ccccc2F)ccc1O [Compound 1, 5-(2-fluorobenzamido)salicylic acid] | moderate | – | – | –
6 | Cc1cc(C(=O)Nc2ccc(O)c(C(=O)O)c2)oc1C [Compound 3, 5-(4,5-dimethylfuran-2-carboxamido)-salicylic acid] | – | no observable inhibition | very low inhibition | selective AKR1C3 inhibitor
7 | Cc1oc(C(N)=O)cc1COc1ccccc1C(N)=O [Compound 4, 4-((2-carbamoylphenoxy)methyl)-5-methylfuran-2-carboxamide] | moderate inhibitor | – | moderate inhibitor | partially selective towards AKR1C1
8 | NC(=O)c1ccccc1/N=C/c1cccc(O)c1 [Compound 5, 2-(3-hydroxybenzylideneamino)benzamide] | – | – | – | selective AKR1C3 inhibitor
9 | NC(=O)c1ccccc1NC(=O)c1ccncc1 [Compound 7] | – | – | – | low inhibitory effect
10 | Cc1cccc(C(=O)Nc2ccccc2C(N)=O)c1 [Compound 8] | – | – | – | low inhibitory effect
11 | O=C(CSc1ncnc2[nH]cnc12)Nc1ccccn1 [Compound 25, 2-((9H-purin-6-yl)thio)-N-(pyridin-2-yl)acetamide] | – | – | – | selective AKR1C1 inhibitor
